Data reported in publication PMC12471299, “Secondary Metabolites of the Marine Sponge-Derived Fungus Aspergillus subramanianii 1901NT-1.40.2 and Their Antimicrobial and Anticancer Activities” (Marine Drugs, 2025).
In brackets after ≈: the same amount, converted by molar mass. Several values for one entry are separate records, joined by “and”; a condition that tells them apart may be missing. Equal values may be shown once. Read-outs that look alike come from different tables or passages of the source.

Assays:
S. aureus ATCC 29213 = system: S. aureus ATCC 29213; parameters: method as in PMID 29642369; conditions: cited from earlier work
[1] = system: methicillin-resistant S. aureus (MRSA); parameters: method as in PMID 29642369; conditions: cited from earlier work
[2] = system: malignant glioma T98G cells; parameters: method as in PMID 29642369; conditions: cited from earlier work
E. faecalis ATCC 29212 = system: E. faecalis ATCC 29212; parameters: method as in PMID 29642369; conditions: cited from earlier work
MCF-7 cells = system: MCF-7 cells; parameters: method as in PMID 29642369; conditions: cited from earlier work
HT29 cells = system: HT29 cells; parameters: method as in PMID 29642369; conditions: cited from earlier work
[3] = system: Escherichia coli VKPM (B-7935); experiment: Biofilm formation assay (MTT); type: cell-based; conditions: E. coli, 18 h
Outline: (§1)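 MIC50 values derive from percent-of-control data: 50% reduction of growth (OD620, 18 h) or of biofilm (MTT, OD570, 18 h). Test compound ≤100 µM; 1% DMSO in PBS served as negative control.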

Candida albicans KMM 455 [4] = experiment: Biofilm formation assay (MTT); type: cell-based; conditions: C. albicans, 18 h
Outline: as §1

[5] = system: MCF-10A breast epithelial cells; experiment: Cell viability assay (MTT); type: cell-based, human; conditions: MCF10A
Outline: (§2)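 Following a 24 h attachment period, rat H9c2 (3 × 10^3/well), HaCaT (1 × 10^4/well), MCF-10A and MDA-MB-231 (each 5 × 10^3/well) cells received compounds at concentrations up to 100 µM. After 24 or 48 h, MTT viability was determined as percent of DMSO-treated wells.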

[6] = system: MCF-7 breast cancer cells; experiment: Cell viability assay (MTT); type: cell-based, human
HaCaT keratinocytes = experiment: Cell viability assay (MTT); type: cell-based, human
Outline: as §2

[7] = system: MDA-MB-231 breast cancer cells; experiment: Cell viability assay (MTT); type: cell-based, human
Outline: as §2

[8] = Cell viability assay (MTT); type: cell-based, human; conditions: human, read-out: Cytotoxicity IC50
Outline: as §2

[9] = system: Staphylococcus aureus ATCC 21027; experiment: Antimicrobial assay, growth inhibition (optical density); type: cell-based; conditions: S. aureus, 18 h; for MIC50: Staphylococcus aureus, ATCC21027, 18 h
Outline: (§3)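 Growth: OD 620 nm, 18 h, compound ≤100 µM; biofilm […]: MTT, OD 570 nm, 18 h. Cells pregrown on MH agar, 37 °C, 24 h. Gentamicin/amphotericin B as positive controls. Reported as MIC50 vs 1% DMSO in PBS.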

Candida albicans KMM 455 [10] = experiment: as above; type: cell-based; conditions: C. albicans, 18 h; for MIC50: Candida albicans, KMM455, 18 h
Outline: as §3

[11] = system: malignant glioma U251 cells; parameters: method as in PMID 29642369; conditions: cited from earlier work
[12] = MCF-7 breast cancer cells, MCF-7, 24 h
[13] = MCF-7 breast cancer cells, MCF-7, 48 h
[14] = MCF-10A breast epithelial cells, MCF10A, 24 h
[15] = MCF-10A breast epithelial cells, MCF10A, 48 h
[16] = MDA-MB-231 breast cancer cells, MDA-MB-231, 24 h
[17] = MDA-MB-231 breast cancer cells, MDA-MB-231, 48 h

Question: Which results are given for COC1=C(c2c[nH]c3ccccc23)C(=O)C(CC=C(C)C)=C(c2c[nH]c3ccccc23)C1=O [Compound 6, kumbicin D]?
Answer: antibacterial activity (S. aureus ATCC 29213): not active; antibacterial activity ([1]; MRSA): not active; effect on cells ([2]; T98G, at 100 µM): weak effects; antibacterial activity (E. faecalis ATCC 29212): not active; effect on cells (MCF-7 cells; MCF-7, at 100 µM): weak effects; effect on cells (HT29 cells; HT29, at 100 µM): weak effects; Biofilm formation, MIC50 [3]: 10.34 ± 0.98 µM; Biofilm formation, MIC50 (Candida albicans KMM 455 [4]): 8.36 ± 0.95 µM; cell viability ([5]; 24 h, 1.0 µM): 101.6 ± 3.1 % of control; cell viability ([5]; 24 h, 10.0 µM): 92.4 ± 3.6 % of control; cell viability ([5]; 24 h, 100.0 µM): 23.9 ± 6.2 % of control; cell viability ([5]; 48 h, 1.0 µM): 98.4 ± 4.5 % of control; cell viability ([5]; 48 h, 10.0 µM): 87.4 ± 2.7 % of control; cell viability ([5]; 48 h, 100.0 µM): 13.7 ± 3.2 % of control; cell viability ([6]; MCF-7, 24 h, 1.0 µM): 107.6 ± 6.5 % of control; cell viability ([6]; MCF-7, 24 h, 10.0 µM): 77.7 ± 7.5 % of control; cell viability ([6]; MCF-7, 24 h, 100.0 µM): 29.9 ± 0.8 % of control; cell viability ([6]; MCF-7, 48 h, 1.0 µM): 84.6 ± 9.4 % of control; cell viability ([6]; MCF-7, 48 h, 10.0 µM): 76.8 ± 3.8 % of control; cell viability ([6]; MCF-7, 48 h, 100.0 µM): 12.1 ± 2.7 % of control; cell viability (HaCaT keratinocytes; 24 h, 1.0 µM): 97.2 ± 5.7 % of control; cell viability (HaCaT keratinocytes; 24 h, 10.0 µM): 98.6 ± 3.5 % of control; cell viability (HaCaT keratinocytes; 24 h, 100.0 µM): 21.5 ± 3.3 % of control; cell viability (HaCaT keratinocytes; 48 h, 1.0 µM): 100.5 ± 3.3 % of control; cell viability (HaCaT keratinocytes; 48 h, 10.0 µM): 80.0 ± 0.1 % of control; cell viability (HaCaT keratinocytes; 48 h, 100.0 µM): 11.6 ± 3.5 % of control; cell viability ([7]; MDA-MB-231, 24 h, 1.0 µM): 93.6 ± 4.8 % of control; cell viability ([7]; MDA-MB-231, 24 h, 10.0 µM): 84.5 ± 6.7 % of control; cell viability ([7]; MDA-MB-231, 24 h, 100.0 µM): 32.7 ± 5.2 % of control; cell viability ([7]; MDA-MB-231, 48 h, 1.0 µM): 100.6 ± 2.2 % of control; cell viability ([7]; MDA-MB-231, 48 h, 10.0 µM): 90.8 ± 1.2 % of control; cell viability ([7]; MDA-MB-231, 48 h, 100.0 µM): 14.7 ± 0.6 % of control; IC50 at 24 h ([8]; HaCaT keratinocytes, 24 h): > 100 µM; IC50 at 48 h ([8]; HaCaT keratinocytes, 48 h): 49.4 ± 1.2 µM; IC50 at 24 h [8, 12]: 62.2 ± 2.2 µM; IC50 at 48 h [8, 13]: 47.3 ± 1.7 µM; IC50 at 24 h [8, 14]: 65.7 ± 1.9 µM; IC50 at 48 h [8, 15]: 55.6 ± 2.3 µM; IC50 at 24 h [8, 16]: 74.4 ± 0.6 µM; IC50 at 48 h [8, 17]: 58.2 ± 2 µM; Growth inhibition, MIC50 [9]: 9.38 ± 0.77 µM; MIC50 [9]: 7 to 11 µM (≈ 3.06 to 4.8 µg/mL); Growth inhibition, MIC50 (Candida albicans KMM 455 [10]): 10.44 ± 1.07 µM; MIC50 (Candida albicans KMM 455 [10]): 7 to 10 µM (≈ 3.06 to 4.37 µg/mL); effect on cells ([11]; U251, at 100 µM): weak effects

Question: Which “antibacterial activity” value (S. aureus ATCC 29213) does the source give for COc1c(OC)c(-c2c[nH]c3ccc(O)cc23)c(OC)c(OC)c1-c1c[nH]c2ccccc12 [Compound 8, petromurin C] here?
Answer: did not inhibit the growth

Question: What about the “effect with oxacillin” value ([1]; MRSA S. aureus 66/1, with oxacillin) of the same compound?
Answer: synergistic effect

Question: What about the “effectiveness” value ([2]; T98G cells) of the same compound?
Answer: not effective

Question: And the “antibacterial activity” value (E. faecalis ATCC 29212)?
Answer: did not inhibit the growth

Question: And the IC50 (MCF-7 cells; MCF-7 cells, read-out: IC50, cell viability)?
Answer: 94.8 µM

Question: And the IC50 (HT29 cells; read-out: IC50, cell viability)?
Answer: 34.8 µM

Question: What about the “Biofilm formation, MIC50” value [3] of the same compound?
Answer: 83.01 µM and 83.01 ± 6.42 µM

Question: What about the “Biofilm formation, MIC50” value (Candida albicans KMM 455 [4]) of the same compound?
Answer: 24.12 µM and 24.12 ± 3.07 µM

Question: What about the cell viability ([5]; 24 h, 1.0 µM) of the same compound?
Answer: 91.9 ± 9.5 % of control

Question: What about the cell viability ([5]; 24 h, 10.0 µM) of the same compound?
Answer: 81.4 ± 1.0 % of control

Question: What about the cell viability ([5]; 24 h, 100.0 µM) of the same compound?
Answer: 52.0 ± 4.0 % of control

Question: And the cell viability ([5]; 48 h, 1.0 µM)?
Answer: 95.3 ± 3.4 % of control

Question: And the cell viability ([5]; 48 h, 10.0 µM)?
Answer: 92.1 ± 2.1 % of control

Question: What about the cell viability ([5]; 48 h, 100.0 µM) of the same compound?
Answer: 45.7 ± 6.6 % of control

Question: What about the cell viability ([6]; MCF-7, 24 h, 1.0 µM) of the same compound?
Answer: 105.4 ± 5.9 % of control

Question: What about the cell viability ([6]; MCF-7, 24 h, 10.0 µM) of the same compound?
Answer: 92.8 ± 3.0 % of control

Question: What about the cell viability ([6]; MCF-7, 24 h, 100.0 µM) of the same compound?
Answer: 53.7 ± 6.8 % of control

Question: What about the cell viability ([6]; MCF-7, 48 h, 1.0 µM) of the same compound?
Answer: 77.7 ± 3.7 % of control

Question: And the cell viability ([6]; MCF-7, 48 h, 10.0 µM)?
Answer: 70.6 ± 8.5 % of control

Question: And the cell viability ([6]; MCF-7, 48 h, 100.0 µM)?
Answer: 28.6 ± 4.3 % of control

Question: And the cell viability (HaCaT keratinocytes; 24 h, 1.0 µM)?
Answer: 102.7 ± 7.7 % of control

Question: What about the cell viability (HaCaT keratinocytes; 24 h, 10.0 µM) of the same compound?
Answer: 93.1 ± 6.9 % of control

Question: What about the cell viability (HaCaT keratinocytes; 24 h, 100.0 µM) of the same compound?
Answer: 64.3 ± 1.9 % of control

Question: What about the cell viability (HaCaT keratinocytes; 48 h, 1.0 µM) of the same compound?
Answer: 95.8 ± 1.9 % of control

Question: What about the cell viability (HaCaT keratinocytes; 48 h, 10.0 µM) of the same compound?
Answer: 97.7 ± 1.4 % of control

Question: What about the cell viability (HaCaT keratinocytes; 48 h, 100.0 µM) of the same compound?
Answer: 36.8 ± 7.0 % of control

Question: What about the cell viability ([7]; MDA-MB-231, 24 h, 1.0 µM) of the same compound?
Answer: 89.4 ± 2.4 % of control

Question: What about the cell viability ([7]; MDA-MB-231, 24 h, 10.0 µM) of the same compound?
Answer: 103.6 ± 2.2 % of control

Question: And the cell viability ([7]; MDA-MB-231, 24 h, 100.0 µM)?
Answer: 63.7 ±4.8 % of control

Question: And the cell viability ([7]; MDA-MB-231, 48 h, 1.0 µM)?
Answer: 102.9 ± 0.5 % of control

Question: What about the cell viability ([7]; MDA-MB-231, 48 h, 10.0 µM) of the same compound?
Answer: 89.5 ± 3.1 % of control

Question: And the cell viability ([7]; MDA-MB-231, 48 h, 100.0 µM)?
Answer: 38.6 ± 1.7 % of control

Question: And the IC50 at 24 h ([8]; HaCaT keratinocytes, 24 h)?
Answer: > 100 µM

Question: And the IC50 at 48 h ([8]; HaCaT keratinocytes, 48 h)?
Answer: 80.5 ± 1.8 µM

Question: What about the IC50 at 24 h [8, 12] of the same compound?
Answer: > 100 µM

Question: What about the IC50 at 48 h [8, 13] of the same compound?
Answer: 61.5 ± 1.2 µM

Question: What about the IC50 at 24 h [8, 14] of the same compound?
Answer: ≥ 100 µM

Question: What about the IC50 at 48 h [8, 15] of the same compound?
Answer: 91 ± 4.1 µM

Question: And the IC50 at 24 h [8, 16]?
Answer: > 100 µM

Question: And the IC50 at 48 h [8, 17]?
Answer: 79.9 ± 1.2 µM

Question: And the “Growth inhibition, MIC50” value [9]?
Answer: 26.74 ± 1.98 µM

Question: And the MIC50 [9]?
Answer: 26 to 52 µM (≈ 11.6 to 23.1 µg/mL)

Question: And the “Growth inhibition, MIC50” value (Candida albicans KMM 455 [10])?
Answer: 34.14 ± 2.1 µM

Question: And the MIC50 (Candida albicans KMM 455 [10])?
Answer: 26 to 52 µM (≈ 11.6 to 23.1 µg/mL)

Question: What about the “effectiveness” value ([11]; U251 cells) of the same compound?
Answer: not effective
